Experimental data as given in PMC11181322, “Copper(II) Complexes with Isomeric Morpholine-Substituted 2-Formylpyridine Thiosemicarbazone Hybrids as Potential Anticancer Drugs Inhibiting Both Ribonucleotide Reductase and Tubulin Polymerization: The Morpholine Position Matters” (Journal of Medicinal Chemistry, 2024).

Columns and labels:
tubulin = assay: Inhibition of [3H]colchicine binding to tubulin; settings: for inhibition of colchicine binding % inhibition ± SD: tubulin 0.5 μM, colchicine 5 μM
MES-SA cells = assay: dNTP pools in MES-SA cell extracts; assay type: cell-based, human; settings: at both concentrations (10 and 25 μM), 24 h
Excerpt: RNR reduces NDPs to their corresponding deoxy derivatives (dNDPs), which are further converted into dNTPs.[77] Therefore, we investigated the effect of the most toxic proligand H2L^6 and its copper(II) complex 6 on cellular dNTP levels, using Triapine as a control. […] Triapine also elicits a dATP pool decrease while increasing the pools of the three other dNTP species. Decreasing the dATP pool to zero can give rise to the observed cytotoxic effect upon treatment with Triapine. Complex 6 seems to affect dNTP pools by a more complex mechanism, which is nevertheless consistent with R2 inhibition.[79]
Figure 8 Measurement of dNTP pools in MES-SA cell extracts following a 24 h treatment with proligand H2L^6, complex 6, or Triapine at the indicated concentrations. Three independent experiments were performed; error bars represent standard error; stars indicate significant changes compared to the respective control (Ctrl) at p < 0.05.
After a 24 h incubation with or without drugs, MES-SA cells were washed twice with PBS and trypsinized for 5 min. […] The pellet containing dNTPs was redissolved in 50 μL of RNase-free water and stored at −20 °C. dNTP-containing samples were measured by a nucleotide incorporation-based fluorescent method.[97] We used a long synthetic oligonucleotide (197 nt) as a template, which contains a dNTP-detection site, the sole complementary base to that of the dNTP to be quantified directly adjacent to the annealed primer. […] In addition to the limiting amount of dNTP to be quantified, the polymerization reaction mix contained the other three dNTPs in large excess. The double-stranded DNA product is detected by the EvaGreen Dye. The 2X master mix for the DNA synthesis reaction contained the following: 0.275 μM primer (Merck KGaA, Darmstadt, Germany), 0.25 μM template (IDT, Coralville, Iowa, USA), 50 μM dNTP mix (excluding the dNTP to be measured in the given experiment to limit its source to the sample), and 1.25 μM EvaGreen (Biotium). […] Fluorescence amplitude data were extracted from the Bio-Rad CFX Maestro Software and analyzed using Excel and Origin. […]

Cc1cc(NC(=NN=Cc2cccc(CN3CCOCC3)n2)[S][Cu][Cl])cc(C)c1O [complex 6, [Cu(HL^6)Cl]·H2O]
inhibition of colchicine binding % inhibition ± SD (tubulin; 5 μM inhibitor): 5.8 ± 5%
inhibition of colchicine binding % inhibition ± SD (tubulin; 25 μM inhibitor): 33 ± 2%
fold less potent than CA-4 in inhibiting [3H]colchicine binding (tubulin; at the 5 μM concentration): 17 fold
dATP and dTTP levels (MES-SA cells): marked decrease
